Measured values as given in US12454678B2, “Muscle differentiation-promoting actions of ergothioneine, ascorbic acid 2-glucoside, ascorbic acid, and combination thereof” (NAGASE & CO., LTD., priority 2018, dated 2025).

How the values were obtained:
Assay type in all cases: cell-based
C2C12 cells = experiment: Microscopic observation of muscle differentiation of C2C12 cells in differentiation medium; conditions: 0.5 mM EGT in differentiation medium, sixth day, vs control without EGT
Procedure: C2C12 cells were suspended in a 10% fetal calf serum-containing Dulbecco's modified Eagle's medium (hereinafter, called a growth medium) to adjust the cell density to 65×10^4 cells/ml. Then, 1.5 ml of the cell suspension was added to each well of a 6-well plate, and the cells were cultured in a 5% CO2 incubator for 24 hours. The growth medium was removed, and 2 ml of 2% horse serum-containing Dulbecco's modified Eagle's medium containing 0.5 mM EGT (hereinafter, called a differentiation medium) was then added to each well. The differentiation medium was exchanged for a new culture medium every other day, and the culture was continued. A control group was subjected to the exactly same operation except that EGT was not contained. The forms of the cells were observed and photographed through a microscope (NIKON CORPORATION: Eclipse Ts2) on the sixth day after exchange for the differentiation medium.

[1] = system: MyoD mRNA expression in C2C12 cells; experiment: MyoD mRNA expression level of C2C12 cells (real time PCR, corrected by PPIA); conditions: 0.1 mM or 0.5 mM EGT, after 2 days
Procedure: C2C12 cells were suspended in a growth medium to adjust the cell density to 65×10^4 cells/ml. Then, 1.5 ml of the cell suspension was added to each well of a 6-well plate, and the cells were cultured in a 5% CO2 incubator for 24 hours. The growth medium was removed, and 2 ml of a differentiation medium containing 0.1 mM or 0.5 mM EGT was then added to each well. A control group (hereinafter abbreviated to NT) was subjected to the exactly same operation except that EGT was not contained. The culture medium was removed after 2 days, 1 ml of TRIzol (Invitrogen Corporation) was added to each well, and the cells were dissolved. The cell solution was collected in an Eppendorf tube, and RNA was collected according to the protocol of TRIzol. The complementary strand DNA of the mRNA was obtained by treating the collected RNA with a reverse transcription kit (Takara Bio Inc.). The following primer DNAs (MyoD [NM_010866]: forward 5[…]3′ (SEQ ID NO: 1), reverse 5′[…]3′ (SEQ ID NO: 2), PPIA [NM_008907]: forward 5′[…]3′ (SEQ ID NO: 3), and reverse 5′[…]3′ (SEQ ID NO: 4)) were added to the obtained complementary strand DNA, and the gene expression levels of MyoD and PPIA were measured by subjecting the mixture to a CFX96 Touch™ real time PCR analysis system (Bio-Rad Laboratories, Inc.) using TB Green™ Premix Ex Taq™ II (Takara Bio Inc.) according to the protocol thereof. […]

[2] = system: MyH2 mRNA expression in C2C12 cells; experiment: MyH2 mRNA expression level of C2C12 cells (real time PCR, corrected by PPIA); conditions: for MyH2 mRNA expression: procedure of Example 3, vs NT
Procedure: (§1) C2C12 cells were suspended in a growth medium to adjust the cell density to 65×10^4 cells/ml. Then, 1.5 ml of the cell suspension was added to each well of a 6-well plate, and the cells were cultured in a 5% CO2 incubator for 24 hours. The growth medium was removed, and 2 ml of a differentiation medium containing 0.5 mM EGT was added. A control group (NT) was subjected to the exactly same operation except that EGT was not contained. The culture medium was removed after 2 days, 1 ml of TRIzol (Invitrogen Corporation) was added to each well, and RNA was collected according to the protocol of TRIzol. The collected RNA was converted into complementary strand DNA with a reverse transcription kit (Takara Bio Inc.). The following primer DNAs (MyH2 [NM_001039545]: forward 5′[…]3′ (SEQ ID NO: 5), reverse 5′[…]3′ (SEQ ID NO: 6), ACTA1 [NM_001272041]: forward 5′[…]3′ (SEQ ID NO: 7), PPIA [NM_008907]: forward 5′[…]3′ (SEQ ID NO: 3), and reverse 5′[…]3′ (SEQ ID NO: 4)) were added to the obtained complementary strand DNA, and the gene expression levels of MyH2, ACTA1, and PPIA were measured by subjecting the mixture to a CFX96 Touch™ real time PCR analysis system (Bio-Rad Laboratories, Inc.) using TB Green™ Premix Ex Tag™ II (Takara Bio Inc.) according to the protocol thereof. Correction was performed by dividing the amounts of expressed MyH2 and ACTA1 mRNA by the amount of expressed PPIA mRNA to calculate the myosin heavy chain 2 (MyH2) and a actin (ACTA1) mRNA expression levels. […] The MyH2 mRNA and ACTA1 mRNA expression levels increased by adding EGT.
C2C12 cells were suspended in a growth medium to adjust the cell density to 65×10^4 cells/ml. Then, 1.5 ml of the cell suspension was added to each well of a 6-well plate, and the cells were cultured in a 5% CO2 incubator for 24 hours. The growth medium was removed, and 2 ml of a differentiation medium containing 0.5 mM EGT, 25 μM edaravone (hereinafter, abbreviated to Edv), or 50 μM Edv was added to each well. Edv is a powerful synthetic antioxidant. The culture medium was exchanged for a new culture medium every other day, and the culture was continued. A control group (NT) was subjected to the exactly same operation except that EGT was not contained. The culture medium was removed after 4 days, 1 ml of TRIzol (Invitrogen Corporation) was added to each well, and RNA was collected according to the protocol of TRIzol. The complementary strand DNA of the mRNA was obtained by treating the collected RNA with a reverse transcription kit (Takara Bio Inc.). The following primer DNAs (MyH2 [NM_001039545]: forward 5′[…]3′ (SEQ ID NO: 5), reverse 5′[…]3′ (SEQ ID NO: 6), PPIA [NM_008907]: forward 5′[…]3′ (SEQ ID NO: 3), and reverse 5′[…]3′ (SEQ ID NO: 4)) were added to the obtained complementary strand DNA, and the gene expression levels of MyH2 and PPIA were measured by subjecting the mixture to a CFX96 Touch™ real time PCR analysis system (Bio-Rad Laboratories, Inc.) using TB Green™ Premix Ex Tag™ II Kit (Takara Bio Inc.) according to the protocol thereof. Correction was performed by dividing the amount of expressed MyH2 mRNA by the amount of expressed PPIA mRNA to calculate the MyH2 mRNA expression level.
The amounts of MyH2 and ACTA1 mRNA expression of C2C12 cells when the differentiation medium containing only EGT was used, when the differentiation medium containing EGT and AG was used, and when the differentiation medium containing only AG was used were investigated. AA2G(R) produced by Hayashibara Co., Ltd. was used as AG. […]

[3] = system: ACTA1 mRNA expression in C2C12 cells; experiment: ACTA1 mRNA expression level of C2C12 cells (real time PCR, corrected by PPIA); conditions: for ACTA1 mRNA expression: procedure of Example 3, vs NT
Procedure: as §1
The amounts of MyH2 and ACTA1 mRNA expression of C2C12 cells when the differentiation medium containing only EGT was used, when the differentiation medium containing EGT and AG was used, and when the differentiation medium containing only AG was used were investigated. AA2G(R) produced by Hayashibara Co., Ltd. was used as AG. The concentration of EGT in the differentiation medium was 0.5 mM, and the concentration of AG was 1.0 mM. The experiment procedure was the same as that of Example 3. […]

## C[N+](C)(C)[C@@H](Cc1c[nH]c(=S)[nH]1)C(=O)[O-] [EGT, Ergothioneine]
C2C12 cells
  differentiation from C2C12 cells to muscle cells / myotube cell formation: more myotube cells were formed
[1]
  MyoD mRNA expression level (relative to NT = 1): increased depending on the concentration of EGT
[2]; 0.5 mM EGT, after 2 days
  MyH2 mRNA expression level (relative to NT = 1): increased
[3]; 0.5 mM EGT, after 2 days
  ACTA1 mRNA expression level (relative to NT = 1): increased

## O=C1O[C@H]([C@@H](O)CO)C(O)=C1O[C@H]1O[C@H](CO)[C@@H](O)[C@H](O)[C@H]1O [AG, ascorbic acid 2-glucoside]
[2]; only AG, 1.0 mM
  MyH2 mRNA expression: increased
[3]; only AG, 1.0 mM
  ACTA1 mRNA expression: increased

## O=C1O[C@H]([C@@H](O)CO)C(O)=C1O [VC, ascorbic acid]
[2]; only VC, 0.5 mM
  MyH2 mRNA expression: increased
[3]; only VC, 0.5 mM
  ACTA1 mRNA expression: increased

## CC1=NN(c2ccccc2)C(=O)C1 [Edv, edaravone, reference compound]
[2]; 25 μM or 50 μM Edv, after 4 days
  MyH2 mRNA expression level (relative to NT = 1): did not affect
[2]; 25 μM or 50 μM Edv, after 4 days, listed as edaravone
  MyH2 mRNA expression level (relative to NT = 1): does not influence
